Source: paper PMC8092268, “Quorum Sensing in Streptococcus mutans Regulates Production of Tryglysin, a Novel RaS-RiPP Antimicrobial Compound” (mBio, 2021)
“Also recorded” adds a separate entry of the source. Marks after values point to notes of the source that are not given here. No end group written: not given here.

What was measured:
[1] = tested on: Pshp-luxAB reporter (PdrA/SHP system); test: luciferase assay, chromosomal Pshp-luxAB reporter, wild type; conditions: CDM; for induction of Pshp-luxAB by tryglysins: 100 nM tryglysin
E. faecalis V583 = test: growth inhibition by tryglysins; type: cell-based, Enterococcus faecalis; parameters: key: −: not inhibited; +: mildly inhibited; ++: inhibited; conditions: 100 nM tryglysin, CDM, 37°C, 5% CO2, OD600 every hour; summary of growth curves
Method: (§1) For experiments to examine the effect of tryglysins, bacterial strains were grown from prestored glycerol stocks at −80°C and inoculated into THY broth. […] To monitor growth, OD600 was measured using a GENESYS 30 Vis spectrophotometer every hour.

L. lactis ATCC 11454 = test: growth inhibition by tryglysins; type: cell-based, Lactococcus lactis; parameters: key: −: not inhibited; +: mildly inhibited; ++: inhibited; conditions: 100 nM tryglysin, CDM, 37°C, 5% CO2, OD600 every hour; summary of growth curves
Method: as §1

S. pyogenes NZ131 = test: growth inhibition by tryglysins; type: cell-based, Streptococcus pyogenes; parameters: key: −: not inhibited; +: mildly inhibited; ++: inhibited; conditions: 100 nM tryglysin, CDM, 37°C, 5% CO2, OD600 every hour; summary of growth curves
Method: as §1

S. ferus DSM 20646 = test: growth inhibition by tryglysins; type: cell-based, Streptococcus ferus; parameters: key to Level of inhibition: −: not inhibited; +: mildly inhibited; ++: inhibited; conditions: CDM; for Level of inhibition: 100 nM tryglysin, 37°C, 5% CO2, OD600 every hour, summary of growth curves; for growth inhibition at 100 nM (titration): Fig. 6
Method: as §1

S. mutans UA159 [2] = test: growth inhibition by tryglysins; type: cell-based, Streptococcus mutans; parameters: key to Level of inhibition: −: not inhibited; +: mildly inhibited; ++: inhibited; conditions: for Level of inhibition: 100 nM tryglysin, 37°C, 5% CO2, OD600 every hour, summary of growth curves; for growth inhibition at 100 nM (titration): 9-h growth assay, Fig. 6
Method: as §1

S. gordonii Challis Bt = test: growth inhibition by tryglysins; type: cell-based, Streptococcus gordonii; parameters: key: −: not inhibited; +: mildly inhibited; ++: inhibited; conditions: 100 nM tryglysin, CDM, 37°C, 5% CO2, OD600 every hour; summary of growth curves
Method: as §1

S. mitis CCUG 31611 = test: growth inhibition by tryglysins; type: cell-based, Streptococcus mitis; parameters: key: −: not inhibited; +: mildly inhibited; ++: inhibited; conditions: 100 nM tryglysin, CDM, 37°C, 5% CO2, OD600 every hour; summary of growth curves
Method: as §1

S. oralis 108 = test: growth inhibition by tryglysins; type: cell-based, Streptococcus oralis; parameters: key: −: not inhibited; +: mildly inhibited; ++: inhibited; conditions: 100 nM tryglysin, CDM, 37°C, 5% CO2, OD600 every hour; summary of growth curves
Method: as §1

S. pneumoniae D39 = test: growth inhibition by tryglysins; type: cell-based, Streptococcus pneumoniae; parameters: key to Level of inhibition: −: not inhibited; +: mildly inhibited; ++: inhibited; conditions: for Level of inhibition: 100 nM tryglysin, CDM, 37°C, 5% CO2, OD600 every hour, summary of growth curves
Method: as §1

S. agalactiae A909 = test: growth inhibition by tryglysins; type: cell-based, Streptococcus agalactiae; parameters: key: −: not inhibited; +: mildly inhibited; ++: inhibited; conditions: 100 nM tryglysin, CDM, 37°C, 5% CO2, OD600 every hour; summary of growth curves
Method: as §1

S. bovis JB1 = test: growth inhibition by tryglysins; type: cell-based, Streptococcus bovis; parameters: key: −: not inhibited; +: mildly inhibited; ++: inhibited; conditions: 100 nM tryglysin, CDM, 37°C, 5% CO2, OD600 every hour; summary of growth curves
Method: as §1

S. mutans UA159 [3] = test: CFU/ml assay (bacteriostatic or bactericidal); type: cell-based, Streptococcus mutans; conditions: 100 nM, CDM; for recovery of viability: 24 h; for mode of action on viability: overall effect
Method: To perform CFU/milliliter assays, S. mutans was grown overnight, washed, and resuspended in CDM as outlined above in the “Luciferase assays with chromosomal reporters” section, with the exception that replicate tubes for harvest at each time point for both no-tryglysin and tryglysin-treated conditions were inoculated from bacterial cultures resuspended overnight. […] At this time point (0 h) and at 1, 2, 4, 6, 8 and 24 h after tryglysin addition, a set of no-tryglysin and tryglysin-treated tubes were harvested. At each time point, 100 μl from each tube in a set was harvested and diluted 1:10 successively in fresh THY. Dilutions from 10^−3 to 10^−6 (depending on the time point) were plated as follows: for each dilution, 10 μl was plated in triplicate on THY agar plates and allowed to drip vertically down the plate. This allowed for the spread of S. mutans colonies for later CFU/ml counting. After each dilution plating, plates were placed at 37°C and incubated for 48 h. […] After 2 days of incubation, colonies were counted for each time point, replicate, and condition, and the number of CFU/milliliter was calculated. Drip plates were considered to have accurate counts if colonies were between 10 and 150 colonies per drip. […] Statistical analysis was performed using a one-way ANOVA with Sidak’s multiple comparison posttest on Graph Pad Prism.

S. mutans UA159 [4] = test: cell chaining by microscopy; type: cell-based, Streptococcus mutans; conditions: 100 nM
Method: For microscopic analysis of live cells exposed to tryglysins, S. mutans strains were inoculated and grown as described above in the “Luciferase assays with chromosomal reporters” section. […] For microscopic analysis of samples, 2 μl of live cells was taken at 2 h, 5 h, and 7 h after the addition of tryglysins and examined using an Olympus CKX53 inverted microscope with a 40× LCACHN-iPC infinity objective (LCACHN40XIPC; numerical aperture, 0.55) connected to a SC50 camera (Olympus). Images were processed using Olympus Stream Image Analysis software (Olympus).
For microscopic analysis of fixed cells exposed to tryglysin A, S. mutans strains were inoculated and grown as described above in the “Luciferase assays with chromosomal reporters” section. […] Supernatant was discarded, and cells were resuspended in 1 ml of fresh CDM. Resuspended cells were dropped into 10 ml of ice-cold 80% methanol and incubated for 1 h at room temperature. Afterwards, 800 μl of 4% paraformaldehyde was added to each methanol cell suspension. The mixture was incubated at room temperature for 5 min, and cells were spun down at 2,500 × g for 10 min. Supernatant was discarded, and cells were resuspended in 200 to 800 μl chilled GTE buffer (50 mM glucose, 20 mM Tris-HCl [pH 7.5], 1 mM EDTA). Cells were kept at 4°C overnight, and then 2 to 5 μl of cells in GTE buffer were placed on a microscope slide. Prepared slides were examined using an Olympus BX51 fluorescence microscope with a 100× UPLFLN objective (UPLFLN 100XO2; numerical aperture, 1.3) connected to an Olympus DP72 Single Chip color charge-coupled-device (CCD) camera. Images were processed using ImageJ 1.52i ([80]). […] Cells were classified as being in chains greater than three per chain or equal to or lesser than three per chain. The percentage of cells belonging to either of these categories was calculated as the number of cells in the category/total number of cells. […] For statistical analysis, data were analyzed via a one-way analysis of variance (ANOVA) with Dunnet’s multiple comparison posttest in Graph Pad Prism.

[5] = tested on: PwgkA-luxAB reporter (PdrA/SHP system); test: luciferase assay, chromosomal PwgkA-luxAB reporter, wild type; conditions: CDM, 100 nM tryglysin
S. mutans UA159 [6] = test: growth inhibition by UV-exposed tryglysin A; type: cell-based, Streptococcus mutans; conditions: short-wavelength UV light 1 h, 2 h or 4 h; 100 or 500 nM tryglysin A; CDM
Method: To monitor growth, OD600 was measured using a GENESYS 30 Vis spectrophotometer every hour, and data were plotted using Graph Pad Prism 8.0.0.

[7] = 5 h, A: one-way ANOVA with Dunnet's posttest
[8] = 7 h, A: one-way ANOVA with Dunnet's posttest

Substance | Level of inhibition (E. faecalis V583) | Level of inhibition (L. lactis ATCC 11454) | Level of inhibition (S. pyogenes NZ131) | Level of inhibition (S. ferus DSM 20646) | growth inhibition at 100 nM (titration) (S. ferus DSM 20646) | optical density of cultures parallel to CFU assay (S. mutans UA159 [2]) | Level of inhibition (S. mutans UA159 [2]; CDM) | growth inhibition at 100 nM (titration) (S. mutans UA159 [2]; CDM) | Level of inhibition (S. gordonii Challis Bt) | Level of inhibition (S. mitis CCUG 31611) | Level of inhibition (S. oralis 108) | Level of inhibition (S. pneumoniae D39) | Level of inhibition (S. agalactiae A909) | Level of inhibition (S. bovis JB1) | recovery of viability (S. mutans UA159 [3]) | mode of action on viability (S. mutans UA159 [3]) | cell chaining (S. mutans UA159 [4]; 2 h) | cell chaining (S. mutans UA159 [4]; [7]) | cell chaining (S. mutans UA159 [4]; [8]) | induction of Pshp-luxAB by tryglysins [1] | other results
GLDWWSL [XIP, reference compound] |  |  |  |  |  |  |  |  |  |  |  |  |  |  |  |  |  |  |  |  | induction of Pshp-luxAB reporter (cross talk) ([1]; 1 μM, Fig. S2C, performed twice): did not observe any induction
VNCWGKH (also: sidechain bridge or staple (positions not given here)) [tryglysin B, 7-mer macrocyclic peptide VNCWGKH carrying the tetrahydro[5,6]benzindole modification, predicted product of the S. mutans wgk cluster] | − | − | − | ++ | substantially inhibited | A proportionate inhibition and restoration of growth were observable by optical density measurements | ++ | substantially inhibited | + | ++ | ++ | ++ | + | + | treated cells were able to overcome this by 24 h | bacteriostatic activities rather than bactericidal | small chains were observed | appeared to do the same | appeared to do the same | do not induce the system | concentration required for complete growth inhibition (S. mutans UA159 [2]; CDM, over the 9-h growth assay, Fig. 6A): 1 µM; induction of PwgkA-luxAB by tryglysins [5]: do not induce the system
VNSWGKH (also: sidechain bridge or staple (positions not given here)) [tryglysin A, macrocyclic 7-mer RiPP from S. ferus, VNSWGKH with tetrahydro[5,6]benzindole modification] | − | − | − | ++ | substantially inhibited | A proportionate inhibition and restoration of growth were observable by optical density measurements | ++ | substantially inhibited | + | ++ | ++ | ++^b | ++ | + | treated cells were able to overcome this by 24 h | bacteriostatic activities rather than bactericidal | small chains were observed | significantly increased | significantly increased | do not induce the system | reproducibility of inhibition (S. pneumoniae D39; 100 nM, three experiments): b For S. pneumoniae D39, two experiments showed inhibition with 100 nM tryglysin A, one experiment did not.; inhibitory activity after UV exposure (S. mutans UA159 [6]): Proportionate decrease of inhibitory activity was observed; also recorded: inhibitory activity can be inactivated by exposure to UV light; induction of PwgkA-luxAB by tryglysins [5]: do not induce the system
